Read-outs that look alike come from different tables or passages of the source.
Key:
PDGFR-β = PDGFR-β (Homo sapiens (Human), UniProt P09619); test: PDGFR-β tyrosine kinase inhibitory action (HTRF KinEASE-TK); type: biochemical; conditions: PDGFR-β enzyme 1 ng/μL, 30° C. for 30 minutes; read-out: PDGF-β IC50
Procedure, shortened: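 Recombinant PDGFR-β at 1 ng/μL final with TK substrate-3-biotin in a substrate solution containing 0.6 μM ATP; buffer 50 mM HEPES pH 7.0, 5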

[1] = biological target: TEL-PDGFRβ fusion gene transfected cells (Ba/F3); test: Suppression of proliferation of TEL-PDGFRβ fusion gene transfected Ba/F3 cells; type: cell-based, human; conditions: TEL-PDGFRβ expressing Ba/F3 cells, 72 hours, final concentration 0.1 to 10,000 nM; read-out: PDGFR β/BaF3 proliferation inhibition (IC50)
Chain of TEL-PDGFRβ fusion gene transfected cells (Ba/F3) (P09619 33-1106 limits assumed, change not shown): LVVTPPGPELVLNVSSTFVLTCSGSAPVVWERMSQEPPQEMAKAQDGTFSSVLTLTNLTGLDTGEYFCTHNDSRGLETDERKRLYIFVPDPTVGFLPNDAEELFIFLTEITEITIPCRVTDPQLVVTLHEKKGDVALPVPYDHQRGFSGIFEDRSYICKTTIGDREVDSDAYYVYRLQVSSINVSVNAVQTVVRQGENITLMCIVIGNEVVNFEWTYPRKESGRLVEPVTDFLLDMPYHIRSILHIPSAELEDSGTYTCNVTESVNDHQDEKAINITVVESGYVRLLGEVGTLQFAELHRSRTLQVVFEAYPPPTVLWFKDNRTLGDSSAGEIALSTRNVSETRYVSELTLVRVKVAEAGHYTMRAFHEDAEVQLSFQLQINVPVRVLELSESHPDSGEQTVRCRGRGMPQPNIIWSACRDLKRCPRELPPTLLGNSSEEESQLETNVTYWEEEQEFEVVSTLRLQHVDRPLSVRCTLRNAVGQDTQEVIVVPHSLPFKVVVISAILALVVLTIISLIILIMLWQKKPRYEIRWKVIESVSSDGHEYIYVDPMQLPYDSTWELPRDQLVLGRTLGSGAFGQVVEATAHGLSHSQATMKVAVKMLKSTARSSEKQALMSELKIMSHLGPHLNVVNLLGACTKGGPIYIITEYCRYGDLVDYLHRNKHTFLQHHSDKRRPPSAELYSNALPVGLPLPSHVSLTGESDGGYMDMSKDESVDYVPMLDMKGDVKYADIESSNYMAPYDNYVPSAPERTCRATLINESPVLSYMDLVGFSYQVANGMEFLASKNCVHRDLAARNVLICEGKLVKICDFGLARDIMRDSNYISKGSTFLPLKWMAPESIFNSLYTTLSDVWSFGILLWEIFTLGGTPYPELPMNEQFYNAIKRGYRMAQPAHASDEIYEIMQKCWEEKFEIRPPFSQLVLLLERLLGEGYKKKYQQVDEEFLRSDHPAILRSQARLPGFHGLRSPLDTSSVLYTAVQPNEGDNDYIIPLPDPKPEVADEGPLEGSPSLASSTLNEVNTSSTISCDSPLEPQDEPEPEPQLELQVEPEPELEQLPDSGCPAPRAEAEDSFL
From the text: 2. Preparation of Test Substance
4. Analysis of Measurement Results

[2] = system: pulmonary arterial smooth muscle cells; test: Suppression of proliferation of pulmonary arterial smooth muscle cells (PDGF-BB stimulation, BrdU); type: cell-based; conditions: PASMC, read-out: Human normal PASMC proliferation suppression (PDGF stimulation_IC50)
Procedure, shortened: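 Test compound (final 3 to 10,000 nM) was added together with BrdU and PDGF-BB (final 10 ng/mL) to healthy human pulmonary artery smooth muscle cells held a day in 0.1% FBS. Proliferation was read after 1 day as anti-BrdU-detected BrdU incorporation.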

[3] = biological target: TEL-KIT fusion gene transfected cells (Ba/F3); test: Suppression of proliferation of TEL-KIT fusion gene transfected Ba/F3 cells; conditions: read-out: KIT/BaF3 proliferation inhibition (IC50); TEL-KIT expressing Ba/F3 cells, 72 hours, final concentration 0.1 to 10,000 nM;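 further: viable cells quantified via formazan from tetrazolium reduction, inhibition scaled with 0.1% DMSO control as 0% and medium-only blank as 100%, IC50 from two-parameter logistic fit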
Chain of TEL-KIT fusion gene transfected cells (Ba/F3) (P10721 26-976 limits assumed, change not shown): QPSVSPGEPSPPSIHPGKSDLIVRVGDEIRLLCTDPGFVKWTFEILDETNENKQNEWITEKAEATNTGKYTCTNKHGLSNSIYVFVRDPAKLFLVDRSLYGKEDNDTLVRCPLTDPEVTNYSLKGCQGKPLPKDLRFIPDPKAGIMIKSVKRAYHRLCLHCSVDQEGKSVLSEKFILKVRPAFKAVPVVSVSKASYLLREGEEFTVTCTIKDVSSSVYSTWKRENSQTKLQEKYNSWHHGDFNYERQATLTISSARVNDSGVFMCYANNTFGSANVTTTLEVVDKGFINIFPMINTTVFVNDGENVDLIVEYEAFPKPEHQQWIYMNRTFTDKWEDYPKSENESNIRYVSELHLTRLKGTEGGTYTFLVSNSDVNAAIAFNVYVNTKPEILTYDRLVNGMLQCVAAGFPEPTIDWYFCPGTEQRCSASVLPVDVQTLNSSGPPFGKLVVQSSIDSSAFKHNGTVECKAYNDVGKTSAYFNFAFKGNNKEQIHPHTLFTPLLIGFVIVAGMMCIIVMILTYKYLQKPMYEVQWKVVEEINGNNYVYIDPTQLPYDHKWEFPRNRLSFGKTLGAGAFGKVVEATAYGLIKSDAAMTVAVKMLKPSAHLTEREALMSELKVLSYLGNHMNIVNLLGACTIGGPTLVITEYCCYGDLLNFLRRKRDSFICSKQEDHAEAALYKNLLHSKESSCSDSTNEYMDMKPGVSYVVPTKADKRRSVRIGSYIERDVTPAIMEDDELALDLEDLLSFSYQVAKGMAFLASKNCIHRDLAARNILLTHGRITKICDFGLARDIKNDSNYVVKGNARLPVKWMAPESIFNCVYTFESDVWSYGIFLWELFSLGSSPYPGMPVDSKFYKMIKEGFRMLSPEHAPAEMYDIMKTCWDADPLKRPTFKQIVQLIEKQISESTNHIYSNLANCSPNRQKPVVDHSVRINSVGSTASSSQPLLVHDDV

[4] = 24 h, healthy human derived pulmonary arterial smooth muscle cells, human PDGF-BB 10 ng/mL stimulation, BrdU uptake after 1 day, test substance final concentration 3 to 10,000 nM
[5] = human PDGF-BB 10 ng/mL, BrdU uptake, final concentration 3 to 10,000 nM

Chain of PDGFR-β (P09619 33-1106): as the sequence (P09619 33-1106 limits assumed, change not shown) above

Cc1ccc(C(=O)N[C@@H](CO)[C@@H](O)c2ccccc2)cc1CNc1cncc(-c2ccccc2)n1 [Example 156, N-[(1S,2S)-1,3-dihydroxy-1-phenylpropan-2-yl]-4-methyl-3-{[(6-phenylpyrazin-2-yl)amino]methyl}benzamide]
IC50 (PDGFR-β): 25 nM | IC50 [1]: 22 nM | IC50 [2, 4]: 79 nM | IC50 [3]: > 10000 nM

Cc1ccc(C(=O)N[C@H]2CCCC[C@@H]2O)cc1N[C@@H](C)c1cncc(-c2cccnc2)c1 [Example 85, 3-{[(1S)-1-([3,3′-bipyridin]-5-yl)ethyl]amino}-N-[(1S,2S)-2-hydroxycyclohexyl]-4-methylbenzamide]
IC50 (PDGFR-β): 180 nM | IC50 [1]: 19 nM | IC50 [2, 4]: 130 nM | IC50 [3]: 4600 nM

CCC[C@@H](CO)NC(=O)c1ccc(C)c(NC(=O)c2cncc(-c3ccccc3)c2)c1 [Example 14, N-(5-{[(2S)-1-hydroxypentan-2-yl]carbamoyl}-2-methylphenyl)-5-phenylpyridine-3-carboxamide]
IC50 (PDGFR-β): 40 nM | IC50 [1]: 11 nM | IC50 [2, 5]: 48 nM | IC50 [3]: 330 nM

O=C(N[C@H]1CCCC[C@@H]1O)c1ccc(Cl)c(NCc2cncc(-c3ncccn3)c2)c1 [Example 104, 4-chloro-N-[(1S,2S)-2-hydroxycyclohexyl]-3-({[5-(pyrimidin-2-yl)pyridin-3-yl]methyl}amino)benzamide]
IC50 (PDGFR-β): 260 nM | IC50 [1]: 3.4 nM | IC50 [2, 4]: 38 nM | IC50 [3]: 3400 nM

Cc1ccc(C(=O)N[C@H]2CCCC[C@@H]2O)cc1COc1cncc(-c2ncccn2)c1 [Example 169, N-[(1S,2S)-2-hydroxycyclohexyl]-4-methyl-3-({[5-(pyrimidin-2-yl)pyridin-3-yl]oxy}methyl)benzamide]
IC50 (PDGFR-β): 52 nM | IC50 [1]: 4 nM | IC50 [2, 4]: 43 nM | IC50 [3]: 400 nM

Cc1ccc(C(=O)N[C@H]2CCCC[C@@H]2O)cc1NCc1cncc(-c2ncc(F)cn2)c1 [Example 107, 3-({[5-(5-fluoropyrimidin-2-yl)pyridin-3-yl]methyl}amino)-N-[(1S,2S)-2-hydroxycyclohexyl]-4-methylbenzamide]
IC50 (PDGFR-β): 190 nM | IC50 [1]: 19 nM | IC50 [2, 4]: 110 nM | IC50 [3]: 1200 nM

Cc1ccc(C(=O)N[C@@H](CO)[C@@H](O)c2ccccc2)cc1CNc1cncc(Br)c1 [Example 152, 3-{[(5-bromopyridin-3-yl)amino]methyl}-N-[(1S,2S)-1,3-dihydroxy-1-phenylpropan-2-yl]-4-methylbenzamide]
IC50 (PDGFR-β): 50 nM | IC50 [1]: 100 nM | IC50 [2, 4]: 82 nM | IC50 [3]: > 10000 nM

Cc1ccc(C(=O)N[C@H]2CCCC[C@@H]2O)cc1C#Cc1cncc(-c2cccc(F)c2)n1 [Example 70, 3-{[6-(3-fluorophenyl)pyrazin-2-yl]ethynyl}-N-[(1S,2S)-2-hydroxycyclohexyl]-4-methylbenzamide]
IC50 (PDGFR-β): 20 nM | IC50 [1]: 1.8 nM | IC50 [2, 4]: 50 nM | IC50 [3]: 300 nM

Cc1ccc(C(=O)N[C@@H](CO)[C@@H](O)c2ccccc2)cc1CNc1cncc(-c2ccccc2)c1 [Example 153, N-[(1S,2S)-1,3-dihydroxy-1-phenylpropan-2-yl]-4-methyl-3-{[(5-phenylpyridin-3-yl)amino]methyl}benzamide]
IC50 (PDGFR-β): 88 nM | IC50 [1]: 27 nM | IC50 [2, 4]: 62 nM | IC50 [3]: 7000 nM

Cc1ccc(C(=O)N[C@H]2CCCC[C@@H]2O)cc1C#Cc1cncc(C2CC2)c1 [Example 67, 3-[(5-cyclopropylpyridin-3-yl)ethynyl]-N-[(1S,2S)-2-hydroxycyclohexyl]-4-methylbenzamide]
IC50 (PDGFR-β): 43 nM | IC50 [1]: 5.2 nM | IC50 [2, 4]: 120 nM | IC50 [3]: 300 nM

Cc1ccc(C(=O)N[C@H]2CCCC[C@@H]2O)cc1NCc1cncc(C#CC2(O)CC2)c1 [Example 97, N-[(1S,2S)-2-hydroxycyclohexyl]-3-[({5-[(1-hydroxycyclopropyl)ethynyl]pyridin-3-yl}methyl)amino]-4-methylbenzamide]
IC50 (PDGFR-β): 100 nM | IC50 [1]: 20 nM | IC50 [2, 4]: 160 nM | IC50 [3]: 1900 nM

Cc1ccc(C(=O)N[C@@H](CO)[C@@H](O)c2ccccc2)cc1CNc1cncc(-c2ccccn2)c1 [Example 155, 3-{[([2,3′-bipyridin]-5′-yl)amino]methyl}-N-[(1S,2S)-1,3-dihydroxy-1-phenylpropan-2-yl]-4-methylbenzamide]
IC50 (PDGFR-β): 36 nM | IC50 [1]: 69 nM | IC50 [2, 4]: 160 nM | IC50 [3]: 10000 nM

Cc1ccc(C(=O)N[C@H]2CCCC[C@@H]2O)cc1CCc1cncc(-c2ccccc2)c1 [Example 174, N-[(1S,2S)-2-hydroxycyclohexyl]-4-methyl-3-[2-(5-phenylpyridin-3-yl)ethyl]benzamide]
IC50 (PDGFR-β): 27 nM | IC50 [1]: 50 nM | IC50 [3]: 870 nM

Cc1ccc(C(=O)N[C@H]2CCCC[C@@H]2O)cc1NCc1cnc(NC2CC2)nc1 [Example 114, 3-({[2-(cyclopropylamino)pyrimidin-5-yl]methyl}amino)-N-[(1S,2S)-2-hydroxycyclohexyl]-4-methylbenzamide]
IC50 (PDGFR-β): 270 nM | IC50 [1]: 2.7 nM | IC50 [2, 4]: 190 nM | IC50 [3]: 960 nM

Cc1ccc(C(=O)N[C@H]2CCCC[C@@H]2O)cc1NC(=O)c1cncc(NC2CC2)c1 [Example 4, 5-(cyclopropylamino)-N-(5-{[(1S,2S)-2-hydroxycyclohexyl]carbamoyl}-2-methylphenyl)pyridine-3-carboxamide]
IC50 (PDGFR-β): 4.9 nM | IC50 [1]: 26 nM | IC50 [2, 5]: 220 nM | IC50 [3]: 1500 nM

Cc1ccc(C(=O)N[C@H]2CCCC[C@@H]2O)cc1C(=O)Nc1cncc(-c2ccccc2)c1 [Example 77, N^1-[(1S,2S)-2-hydroxycyclohexyl]-4-methyl-N^3-(5-phenylpyridin-3-yl)benzene-1,3-dicarboxamide]
IC50 (PDGFR-β): 38 nM | IC50 [1]: 79 nM | IC50 [3]: 600 nM

Cc1ccc(C(=O)N[C@H]2CCCC[C@@H]2O)cc1OC(C)c1cncc(-c2ncccn2)c1 (stereo partly drawn) [Example 171, N-[(1S,2S)-2-hydroxycyclohexyl]-4-methyl-3-{1-[5-(pyrimidin-2-yl)pyridin-3-yl]ethoxy}benzamide]
IC50 (PDGFR-β): 260 nM | IC50 [1]: 12 nM | IC50 [3]: 2400 nM

Cc1ncc(C(=O)N[C@H]2CCCC[C@@H]2O)cc1NCc1cnn2ccccc12 [Example 123, N-[(1S,2S)-2-hydroxycyclohexyl]-6-methyl-5-{[(pyrazolo[1,5-a]pyridin-3-yl)methyl]amino}pyridine-3-carboxamide]
IC50 (PDGFR-β): 210 nM | IC50 [2, 4]: 290 nM

O=C(N[C@H]1CCCC[C@@H]1O)c1ccc(F)c(/C=C(\F)c2cnc(NC3CC3)nc2)c1 [Example 203, 3-{(Z)-2-[2-(cyclopropylamino)pyrimidin-5-yl]-2-fluoroethenyl}-4-fluoro-N-[(1S,2S)-2-hydroxycyclohexyl]benzamide]
IC50 (PDGFR-β): 61 nM | IC50 [2, 4]: 200 nM

Cc1ccc(C(=O)N[C@H]2CCCC[C@@H]2O)cc1/C=C(\F)c1cncc(NCCN(C)C)c1 [Example 198, 3-[(Z)-2-(5-{[2-(dimethylamino)ethyl]amino}pyridin-3-yl)-2-fluoroethenyl]-N-[(1S,2S)-2-hydroxycyclohexyl]-4-methylbenzamide]
IC50 (PDGFR-β): 7.2 nM | IC50 [2, 4]: 39 nM

Nc1ncc(CNc2cc(C(=O)N[C@H]3CCCC[C@@H]3O)ccc2Cl)cn1 [Example 142, 3-{[(2-aminopyrimidin-5-yl)methyl]amino}-4-chloro-N-[(1S,2S)-2-hydroxycyclohexyl]benzamide]
IC50 (PDGFR-β): 210 nM | IC50 [2, 4]: 130 nM

Cc1ccc(C(=O)N[C@H]2CCCC[C@@H]2O)cc1/C=C(\F)c1ccc(NCC2CC2)nc1 [Example 183, 3-[(Z)-2-{6-[(cyclopropylmethyl)amino]pyridin-3-yl}-2-fluoroethenyl]-N-[(1S,2S)-2-hydroxycyclohexyl]-4-methylbenzamide]
IC50 (PDGFR-β): 30 nM | IC50 [2, 4]: 24 nM

Cc1ccc(C(=O)N[C@H]2CCCC[C@@H]2O)cc1NCc1cnc2c(c1)OCCN2 [Example 144, 3-{[(3,4-dihydro-2H-pyrido[3,2-b][1,4]oxazin-7-yl)methyl]amino}-N-[(1S,2S)-2-hydroxycyclohexyl]-4-methylbenzamide]
IC50 (PDGFR-β): 65 nM | IC50 [2, 4]: 39 nM

Cc1ccc(C(=O)N[C@H]2CCCC[C@@H]2O)cc1NCc1cnc2[nH]ncc2c1 [Example 109, N-[(1S,2S)-2-hydroxycyclohexyl]-4-methyl-3-{[(1H-pyrazolo[3,4-b]pyridin-5-yl)methyl]amino}benzamide]
IC50 (PDGFR-β): 46 nM | IC50 [2, 4]: 170 nM

CNc1ncc(/C(F)=C/c2cc(C(=O)N[C@H]3CCCC[C@@H]3O)ccc2F)cn1 [Example 205, 4-fluoro-3-{(Z)-2-fluoro-2-[2-(methylamino)pyrimidin-5-yl]ethenyl}-N-[(1S,2S)-2-hydroxycyclohexyl]benzamide]
IC50 (PDGFR-β): 130 nM | IC50 [2, 4]: 160 nM

O=C(Nc1cc(C(=O)N[C@H]2CCCC[C@@H]2O)ccc1F)c1cncc(OCC2CC2)c1 [Example 56, 5-(cyclopropylmethoxy)-N-(2-fluoro-5-{[(1S,2S)-2-hydroxycyclohexyl]carbamoyl}phenyl)pyridine-3-carboxamide]
IC50 (PDGFR-β): 120 nM | IC50 [2, 4]: 240 nM

From patent US12509424B2, “Compound and composition as PDGF receptor kinase inhibitor” (NIPPON SHINYAKU CO., LTD., priority 2019, dated 2025)
